From patent US4388233A, “Synthetic substrates for enzyme analysis” (priority 1981, dated 1983) come the findings set out here.

Usually Km stands for the concentration of substrate that gives half-maximal velocity. As a reminder, the Vmax is the top rate of the reaction or transport when substrate is in excess.

Like-named read-outs stand apart in the source and are kept apart here.

Series [1] is described as follows: Fluorescence properties of liberated detector compounds. Format: physicochemical. The note with it: for Em: fluorescence emission wavelength of detector compound; for Ex: fluorescence excitation wavelength of detector compound; for Rel. Int.: relative fluorescent intensity of detector compound. The text has this:
The presence of the liberated D compound can be qualitatively or quantitatively determined fluorometrically, or may be utilized in colorimetric assays.

The nature of series [2]: Solubility of liberated detector compounds in water. The settings on record: in water as solvent, analogous to a buffered solution.
For series [3] the following is noted: water.
The next series deals with DAP II. As to the kind of experiment: Enzyme kinetic study of synthetic substrates with DAP II. Type of series: biochemical. The settings on record: pH 5.6, rat pituitary homogenate 13.75 μg/mL protein equivalent, liberated D compound 7-amino-3-phenylcoumarin. The source says:
(§1) In use for enzyme analysis, following enzyme cleavage of the bond between the C7 amino group and the A moiety, a detector group is liberated. This detector group is substantially identical to the precursor D moiety (although the amido group at C7 is converted to a primary amino group) and shall be hereinafter referred to as the liberated D compound.
(§2) The liberated D compounds from the above-described inventive synthetic substrates generally fluoresce strongly in the blue to yellow region of the spectrum once irradiated with ultraviolet light, whereas the intact synthetic substrates of the present invention fluoresce more weakly and at shorter wavelengths. The presence of the liberated D compound can be qualitatively or quantitatively determined fluorometrically, or may be utilized in colorimetric assays. Synthetic substrates in accordance with the present invention preferably fluoresce at wavelengths of at least about 460 nm. The FIG. 2 structure, for example, yields a liberated D compound which fluoresces at a wavelength of 472 nm, and the FIG. 3 structure at a wavelength of 505 nm.
The inventive synthetic substrates may be used in enzyme kinetic studies. Table I, below illustrates kinetic data of several synthetic substrates in accordance with the present invention (where the liberated D compound is 7-amino-3-phenylcoumarin) with 3 different enzymes. […]

The next series concerns Trypsin. Nature of the series: Enzyme kinetic / reaction rate study of synthetic substrates with trypsin. Format: biochemical. The note with it: for 1/V: trypsin, pH8, 37° C., Ex = 420 nm, Em = 485 nm; for Km / Vmax: Trypsin, pH 8.0, 200 ng/mL, liberated D compound 7-amino-3-phenylcoumarin.
Source text: as §1, §2
(§3) The inventive synthetic substrates may be used in enzyme kinetic studies. Table I, below illustrates kinetic data of several synthetic substrates in accordance with the present invention (where the liberated D compound is 7-amino-3-phenylcoumarin) with 3 different enzymes.
(§4) Table II, below, tabulates the data from three Lineweaver-Burk plots of reaction rate studies utilizing several of the inventive synthetic substrates.

The next series deals with Urokinase. As to the kind of experiment: Enzyme kinetic / reaction rate study of synthetic substrates with urokinase. Format: biochemical. The settings on record: for 1/V: urokinase, pH8, 37° C., Ex = 410 nm, Em = 475 nm.
Source text: as §1, §2, §3, §4

[4] abbreviates: Urokinase, pH 8.0, 2.5 Plough units/ml, liberated D compound 7-amino-3-phenylcoumarin.

As for `Nc1ccc2cc(-c3ccccc3)c(=O)oc2c1` [7-amino-3-phenyl coumarin, 7-amino-3-phenylcoumarin], in series [1], the Em is 472 nm, the Ex was 368 nm and the “Rel. Int.” value was 4.0. The Sol. in series [2] was determined as 0.0012 mg/mL.
As to `Nc1ccc2c(C(F)(F)F)cc(=O)oc2c1` [7-amino-4-trifluoro-methyl coumarin, 7-amino-4-trifluoromethylcoumarin, reference compound], in series [1], the Em is listed as 500 nm, the Ex was found to be 390 nm and the “Rel. Int.” value was 1.0. This molecule gave a Sol. in series [3] of 0.017 mg/mL.
On to `Br.Br.C[C@H](NC(=O)[C@@H](N)CCCCN)C(=O)Nc1ccc2cc(-c3ccccc3)c(=O)oc2c1.O` [Example VII, 7-(L-Lysyl-L-alaninamido)-3-phenylcoumarin Dihydrobromide Monohydrate], for which, in the series with DAP II, the Michaelis constant (Km) amounted to 321 µM and the Vmax is 0.346 nmol/min.
On to `N=C(N)NCCC[C@H](NC(=O)OCc1ccccc1)C(=O)Nc1ccc2cc(-c3ccccc3)c(=O)oc2c1` [Example VIII, 7-(Z-L-Arginamido)-3-phenylcoumarin], for which the 1/V with Trypsin (1/S = 1.7 (mm)^-1) is 1.45 (nmol/ml/min)^-1; in the series with Trypsin (1/S = 3.3 (mm)^-1), 2.25 (nmol/ml/min)^-1; in the series with Trypsin (1/S = 6.7 (mm)^-1), 4.3 (nmol/ml/min)^-1; in the series on Trypsin (1/S = 12.5 (mm)^-1), 7.6 (nmol/ml/min)^-1; with Trypsin (1/S = 16.6 (mm)^-1) it was 10.2 (nmol/ml/min)^-1. Also, the Km in the series on Trypsin was 574 µM. In addition, the maximum rate (Vmax) in the series on Trypsin is reported as 1.264 nmol/min.
As for `N=C(N)NCCC[C@H](NC(=O)CNC(=O)CNC(=O)OCc1ccccc1)C(=O)Nc1ccc2cc(-c3ccccc3)c(=O)oc2c1` [Example X, 7-(Z-Glycylglycyl-L-arginamido)-3-phenylcoumarin], the 1/V was 11 (nmol/ml/min)^-1 in the series with Urokinase (1/S = 1 (mm)^-1); 13 (nmol/ml/min)^-1 in the series on Urokinase (1/S = 2 (mm)^-1); 17 (nmol/ml/min)^-1 in the series with Urokinase (1/S = 3.5 (mm)^-1); 22 (nmol/ml/min)^-1 in the series with Urokinase (1/S = 5 (mm)^-1); 36 (nmol/ml/min)^-1 with Urokinase (1/S = 8.25 (mm)^-1); 42 (nmol/ml/min)^-1 in the series with Urokinase (1/S = 11 (mm)^-1). The 1/V with Urokinase (1/S = 12.25 (mm)^-1) is recorded as 50 (nmol/ml/min)^-1; with Urokinase (1/S = 14.25 (mm)^-1) it was 51 (nmol/ml/min)^-1. Besides, the Michaelis-Menten constant (Km) in the series with Urokinase (setting [4]) turned out to be 411 µM. In addition, the maximum rate (Vmax) in the series with Urokinase (setting [4]) was 0.137 nmol/min.
For `N=C(N)NCCC[C@H](NC(=O)OCc1ccc([N+](=O)[O-])cc1)C(=O)Nc1ccc2cc(-c3ccccc3)c(=O)oc2c1` [Example XII, 7-(4-NO2 -Z-L-Arginamido)-3-phenylcoumarin], in the series on Trypsin, the Michaelis-Menten constant (Km) stood at 193 µM and the Vmax came to 0.174 nmol/min.
Turning to `N=C(N)NCCC[C@H](NC(=O)c1ccccc1)C(=O)Nc1ccc2cc(-c3ccccc3)c(=O)oc2c1` [IX, 7-(Benzoyl-L-arginamido)-3-phenylcoumarin], the 1/V with Trypsin (1/S = 1.1 (mm)^-1) is recorded as 4.9 (nmol/ml/min)^-1; in the series with Trypsin (1/S = 1.7 (mm)^-1), 6.0 (nmol/ml/min)^-1; in the series with Trypsin (1/S = 3.4 (mm)^-1), 10.0 (nmol/ml/min)^-1; in the series on Trypsin (1/S = 6.7 (mm)^-1) it was 18.3 (nmol/ml/min)^-1; with Trypsin (1/S = 12.5 (mm)^-1), 35.0 (nmol/ml/min)^-1. Also, the Km with Trypsin was determined as 945 µM. In addition, in the series on Trypsin, the maximum rate (Vmax) was found to be 0.414 nmol/min.
